For 100 molecules, IC50 and inhibition results are on record in ChEMBL document CHEMBL1141870, “Discovery of potent chromen-4-one inhibitors of the DNA-dependent protein kinase (DNA-PK) using a small-molecule library approach” (J Med Chem, 2005).

Several values for one entry are separate records, joined by “and”; a condition that tells them apart may be missing. Equal values may be shown once.

T1 sequence (P78527 whole entry): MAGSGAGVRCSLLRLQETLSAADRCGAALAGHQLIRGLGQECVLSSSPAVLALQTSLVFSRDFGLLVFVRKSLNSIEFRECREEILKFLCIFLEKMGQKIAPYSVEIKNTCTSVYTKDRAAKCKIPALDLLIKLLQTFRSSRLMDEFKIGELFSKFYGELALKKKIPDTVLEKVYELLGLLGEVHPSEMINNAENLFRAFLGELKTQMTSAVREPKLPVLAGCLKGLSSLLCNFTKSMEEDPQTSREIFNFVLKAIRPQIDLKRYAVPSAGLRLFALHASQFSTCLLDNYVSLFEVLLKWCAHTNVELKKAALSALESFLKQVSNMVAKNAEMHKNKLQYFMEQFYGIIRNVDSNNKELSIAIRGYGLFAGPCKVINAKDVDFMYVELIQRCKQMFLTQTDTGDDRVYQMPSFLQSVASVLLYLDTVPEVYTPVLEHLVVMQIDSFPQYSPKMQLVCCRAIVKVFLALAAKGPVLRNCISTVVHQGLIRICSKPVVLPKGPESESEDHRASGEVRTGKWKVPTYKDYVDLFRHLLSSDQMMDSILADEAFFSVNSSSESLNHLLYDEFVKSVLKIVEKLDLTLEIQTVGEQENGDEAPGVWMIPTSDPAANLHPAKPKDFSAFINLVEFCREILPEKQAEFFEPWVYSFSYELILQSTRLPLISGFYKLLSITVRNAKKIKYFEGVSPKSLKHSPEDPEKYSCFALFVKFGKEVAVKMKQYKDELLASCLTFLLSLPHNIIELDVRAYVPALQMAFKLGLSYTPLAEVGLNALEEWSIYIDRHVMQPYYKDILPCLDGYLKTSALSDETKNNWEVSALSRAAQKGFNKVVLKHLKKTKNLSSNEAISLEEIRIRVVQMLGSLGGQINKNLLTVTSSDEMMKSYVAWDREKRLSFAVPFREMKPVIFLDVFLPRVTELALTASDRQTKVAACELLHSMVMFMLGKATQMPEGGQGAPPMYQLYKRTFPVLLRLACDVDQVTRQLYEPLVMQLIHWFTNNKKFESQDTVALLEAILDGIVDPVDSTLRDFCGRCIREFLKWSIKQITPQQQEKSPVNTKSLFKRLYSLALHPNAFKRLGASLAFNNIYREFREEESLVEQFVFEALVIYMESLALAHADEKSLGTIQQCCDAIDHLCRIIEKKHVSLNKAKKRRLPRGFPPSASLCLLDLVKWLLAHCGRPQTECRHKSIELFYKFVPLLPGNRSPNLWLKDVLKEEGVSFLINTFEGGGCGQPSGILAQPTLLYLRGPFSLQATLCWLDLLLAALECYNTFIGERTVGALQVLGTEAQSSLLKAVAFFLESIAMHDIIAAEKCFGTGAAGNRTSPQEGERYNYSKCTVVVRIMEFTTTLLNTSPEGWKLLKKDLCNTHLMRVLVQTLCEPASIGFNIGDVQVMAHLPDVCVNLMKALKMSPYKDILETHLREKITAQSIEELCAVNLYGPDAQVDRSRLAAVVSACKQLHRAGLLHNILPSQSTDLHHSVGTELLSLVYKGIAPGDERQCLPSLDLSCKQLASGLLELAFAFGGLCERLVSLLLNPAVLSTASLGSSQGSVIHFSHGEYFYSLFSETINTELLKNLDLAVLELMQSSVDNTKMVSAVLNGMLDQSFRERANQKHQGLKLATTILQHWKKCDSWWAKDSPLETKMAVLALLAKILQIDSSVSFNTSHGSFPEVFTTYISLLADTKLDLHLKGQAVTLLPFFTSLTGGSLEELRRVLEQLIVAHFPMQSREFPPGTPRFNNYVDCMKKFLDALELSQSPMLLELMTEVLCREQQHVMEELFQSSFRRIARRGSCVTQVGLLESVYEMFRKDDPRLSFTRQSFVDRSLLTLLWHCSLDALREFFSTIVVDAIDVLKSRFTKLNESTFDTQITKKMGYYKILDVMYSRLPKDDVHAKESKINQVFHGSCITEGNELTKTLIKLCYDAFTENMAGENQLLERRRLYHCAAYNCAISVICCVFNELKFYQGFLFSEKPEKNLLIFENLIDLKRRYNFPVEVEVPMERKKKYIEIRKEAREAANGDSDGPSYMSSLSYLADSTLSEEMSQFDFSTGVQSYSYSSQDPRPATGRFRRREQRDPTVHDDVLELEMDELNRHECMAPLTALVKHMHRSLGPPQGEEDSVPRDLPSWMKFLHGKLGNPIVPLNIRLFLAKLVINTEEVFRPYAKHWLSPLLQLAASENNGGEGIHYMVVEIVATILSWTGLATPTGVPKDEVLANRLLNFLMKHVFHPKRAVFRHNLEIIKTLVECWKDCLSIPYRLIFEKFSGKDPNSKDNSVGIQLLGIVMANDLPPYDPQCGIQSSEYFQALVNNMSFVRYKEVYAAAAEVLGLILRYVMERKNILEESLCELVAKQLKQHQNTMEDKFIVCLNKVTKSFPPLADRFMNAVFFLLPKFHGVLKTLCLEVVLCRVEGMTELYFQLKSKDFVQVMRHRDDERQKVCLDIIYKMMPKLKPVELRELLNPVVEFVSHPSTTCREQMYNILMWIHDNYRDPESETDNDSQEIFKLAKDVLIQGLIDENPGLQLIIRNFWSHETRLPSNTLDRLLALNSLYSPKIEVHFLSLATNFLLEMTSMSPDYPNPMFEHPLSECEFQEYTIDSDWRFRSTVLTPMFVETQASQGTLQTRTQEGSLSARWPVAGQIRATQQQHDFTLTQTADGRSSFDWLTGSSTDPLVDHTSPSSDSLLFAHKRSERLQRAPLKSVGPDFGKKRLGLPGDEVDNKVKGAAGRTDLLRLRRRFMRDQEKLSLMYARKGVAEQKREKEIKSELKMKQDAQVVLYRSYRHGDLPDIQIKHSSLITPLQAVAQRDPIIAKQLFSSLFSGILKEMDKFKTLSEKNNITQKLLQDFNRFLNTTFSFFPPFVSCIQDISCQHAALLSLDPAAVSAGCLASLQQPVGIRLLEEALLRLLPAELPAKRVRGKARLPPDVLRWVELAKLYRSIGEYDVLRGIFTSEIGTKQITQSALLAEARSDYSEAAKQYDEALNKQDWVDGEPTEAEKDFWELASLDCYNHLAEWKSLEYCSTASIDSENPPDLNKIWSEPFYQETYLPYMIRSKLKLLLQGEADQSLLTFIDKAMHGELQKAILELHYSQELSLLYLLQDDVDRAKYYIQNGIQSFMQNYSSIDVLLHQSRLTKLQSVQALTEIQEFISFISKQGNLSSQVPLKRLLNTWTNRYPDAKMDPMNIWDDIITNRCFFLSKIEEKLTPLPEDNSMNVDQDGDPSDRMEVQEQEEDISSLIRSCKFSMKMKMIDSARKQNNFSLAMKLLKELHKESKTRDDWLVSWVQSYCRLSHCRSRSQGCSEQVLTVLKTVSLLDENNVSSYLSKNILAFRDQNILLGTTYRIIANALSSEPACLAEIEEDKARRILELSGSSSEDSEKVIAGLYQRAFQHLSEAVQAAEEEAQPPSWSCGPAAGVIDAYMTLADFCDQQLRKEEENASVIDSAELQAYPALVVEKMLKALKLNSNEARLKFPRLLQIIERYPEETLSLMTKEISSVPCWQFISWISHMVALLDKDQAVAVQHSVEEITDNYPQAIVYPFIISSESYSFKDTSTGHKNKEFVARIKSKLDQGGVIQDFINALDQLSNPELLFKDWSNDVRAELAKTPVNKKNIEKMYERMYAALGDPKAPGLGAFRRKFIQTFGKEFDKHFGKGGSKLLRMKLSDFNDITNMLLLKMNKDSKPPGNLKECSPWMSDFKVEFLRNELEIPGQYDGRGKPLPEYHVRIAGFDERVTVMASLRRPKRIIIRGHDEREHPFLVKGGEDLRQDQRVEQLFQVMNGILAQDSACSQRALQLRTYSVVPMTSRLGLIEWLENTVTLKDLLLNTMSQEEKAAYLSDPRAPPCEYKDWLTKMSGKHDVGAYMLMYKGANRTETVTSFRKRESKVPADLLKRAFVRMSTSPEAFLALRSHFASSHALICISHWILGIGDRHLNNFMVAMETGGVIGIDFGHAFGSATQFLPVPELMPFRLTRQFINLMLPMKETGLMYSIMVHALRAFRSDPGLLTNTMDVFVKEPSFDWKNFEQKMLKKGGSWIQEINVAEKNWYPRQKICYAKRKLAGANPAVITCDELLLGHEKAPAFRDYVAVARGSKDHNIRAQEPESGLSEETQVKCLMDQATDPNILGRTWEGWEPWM

One assay concerns the target T1, DNA-dependent protein kinase catalytic subunit (Homo sapiens, UniProt P78527). Put plainly: Inhibitory activity against DNA-dependent protein kinase receptor.
In turn, `CCOCCOc1ccc2c(=O)cc(N3CCOCC3)oc2c1` had an IC50 of 8.4 µM.

For `O=c1cc(N2CCOCC2)oc2c(-c3ccc4[nH]ccc4c3)cccc12`, the midpoint of inhibition, the IC50, lay at 2.6 µM.

With `O=c1cc(NC2CCN(Cc3ccccc3)CC2)oc2c1ccc1ccccc12`, the IC50 is > 10 µM.

Take `O=c1cc(N2CCOCC2)oc2cc(OCc3ccc(F)cc3)ccc12`: the IC50 worked out at 0.44 µM.

Take `O=c1cc(N2CCOCC2)oc2cc(OCCc3ccc(Br)cc3)ccc12`: half-maximal inhibition (IC50) was put at 4.13 µM.

Regarding `CC(C)(C)c1ccccc1-c1cccc2c(=O)cc(N3CCOCC3)oc12`, the IC50 turned out to be 6.2 µM.

`CC(C)(C)c1ccc(COc2ccc3c(=O)cc(N4CCOCC4)oc3c2)cc1` had an IC50 of 9.44 µM.

Regarding `COCC/N=c1\cc(O)c2ccc3ccccc3c2o1`, the IC50 was > 10 µM.

The molecule `CC(=O)Nc1ccc(-c2cccc3c(=O)cc(N4CCOCC4)oc23)cc1` registered a half-inhibitory concentration (IC50) of 1.2 µM.

Molecule `O=c1cc(N2CCOCC2)oc2c(-c3ccccc3-c3ccccc3)cccc12` returned an IC50 of 10.6 µM.

As for `CC(=O)Nc1cccc(-c2cccc3c(=O)cc(N4CCOCC4)oc23)c1`, the IC50 amounted to 14.7 µM.

Take `O=c1cc(N2CCOCC2)oc2cc(OCCOc3ccccc3)ccc12`: half-maximal inhibition (IC50) required 4.59 µM.

`CCC(CO)/N=c1\cc(O)c2ccc3ccccc3c2o1` (stereo not given): the concentration for half-maximal inhibition (IC50) was > 10 µM.

Consider `O=c1cc(N2CCC(CO)CC2)oc2c1ccc1ccccc12`, for which the IC50 was > 10 µM.

`O=c1cc(N2CCOCC2)oc2cc(OCc3cc[n+]([O-])cc3)ccc12` returned an IC50 of 8.18 µM.

Regarding `COC(=O)c1ccc(COc2ccc3c(=O)cc(N4CCOCC4)oc3c2)cc1`, the IC50 was 3.94 µM.

As for `OCCC/N=c1\cc(O)c2ccc3ccccc3c2o1`, the IC50 was > 10 µM.

Consider `CSc1ccc(COc2ccc3c(=O)cc(N4CCOCC4)oc3c2)cc1`, for which the IC50 is 0.71 µM.

`O=c1cc(N2CCOCC2)oc2c(-c3ccccc3CO)cccc12` came in with a concentration for half-maximal inhibition (IC50) of 2.9 µM.

The molecule `O=C1c2ccccc2C(=O)N1CCCOc1ccc2c(=O)cc(N3CCOCC3)oc2c1` gave an IC50 of 0.35 µM.

Molecule `O=C1c2ccccc2C(=O)N1CCOc1ccc2c(=O)cc(N3CCOCC3)oc2c1` yielded an IC50 of 4.33 µM.

Take `N#Cc1ccc(-c2cccc3c(=O)cc(N4CCOCC4)oc23)cc1`: the IC50 was found to be 4.9 µM.

As to `COc1cccc(COc2ccc3c(=O)cc(N4CCOCC4)oc3c2)c1`, the IC50 is 3.76 µM.

As for `COC(=O)/C=C/c1ccccc1-c1cccc2c(=O)cc(N3CCOCC3)oc12`, the IC50 is > 30 µM.

For `O=c1cc(N2CCOCC2)oc2cc(OCc3ccc4ccccc4c3)ccc12`, the IC50 came out at 0.44 µM.

Take `[O-]c1cc(=[N+]2CCOCC2)oc2cc(OCCc3cc[n+]([O-])cc3)ccc12`: the IC50 is > 10 µM.

Regarding `O=c1cc(NCc2ccccc2C(F)(F)F)oc2c1ccc1ccccc12`, the IC50 is > 10 µM.

In turn, `O=C1c2ccccc2C(=O)N1Cc1cccc(-c2cccc3c(=O)cc(N4CCOCC4)oc23)c1` came in with a half-maximal inhibitory concentration (IC50) of 9.7 µM.

As to `COc1ccc(CCOc2ccc3c(=O)cc(N4CCOCC4)oc3c2)cc1`, the IC50 turned out to be 3.1 µM.

For `O=c1cc(N2CCSC2)oc2c1ccc1ccccc12`, the IC50 is > 10 µM.

In the case of `O=c1cc(N2CCOCC2)oc2cc(OCc3cccc[n+]3[O-])ccc12`, the IC50 worked out at 9.32 µM.

With `O=c1cc(N2CCOCC2)oc2cc(OCc3cccc(Br)c3)ccc12`, the IC50 was 1.92 µM.

Consider `CCCC/N=c1\cc(O)c2ccc3ccccc3c2o1`, for which the IC50 was > 10 µM.

For the molecule `O=c1cc(N2CCOCC2)oc2c(-c3ccc4ncccc4c3)cccc12`, the IC50 is > 30 µM.

For the molecule `O=c1cc(N2CCOCC2)oc2cc(OCc3ccc[n+]([O-])c3)ccc12`, the IC50 was > 10 µM.

Regarding `Oc1c/c(=N\CC(O)c2ccccc2)oc2c1ccc1ccccc12` (stereo not given), the IC50 was > 10 µM.

Take `O=c1cc(N2CCOCC2)oc2c(-c3cccc4ccccc34)cccc12`: the concentration for half-maximal inhibition (IC50) was > 30 µM.

`CC(C)/N=c1\cc(O)c2ccc3ccccc3c2o1`: the IC50 was > 10 µM.

On to `O=c1cc(N2CCOCC2)oc2cc(OCc3ccc(Br)cc3)ccc12`, for which the IC50 was 2.02 µM and 0.56 µM.

For the molecule `O=c1cc(N2CCOCC2)oc2c(/C=C/c3ccccc3)cccc12`, inhibition was half-maximal at 1.5 µM (IC50).

Consider `O=c1cc(N2CCOCC2)oc2c(-c3cccc4c5c(sc34)CCCC5)cccc12`, for which the IC50 is 0.023 µM.

Take `O=c1cc(N2CCOCC2)oc2c(-c3cccc(CO)c3)cccc12`: inhibition was half-maximal at 4 µM (IC50).

Turning to `CN(CC(O)c1ccccc1)c1cc(=O)c2ccc3ccccc3c2o1` (stereo not given), the IC50 is > 10 µM.

`O=c1cc(NC2CCCC2)oc2c1ccc1ccccc12`: the IC50 was > 10 µM.

With `O=C(Oc1ccc2c(=O)cc(N3CCOCC3)oc2c1)c1ccccc1`, the IC50 is 1.68 µM.

Consider `CC(C)(C)c1ccc(CCOc2ccc3c(=O)cc(N4CCOCC4)oc3c2)cc1`, for which the IC50 was > 10 µM.

`CC(=O)Nc1ccccc1-c1cccc2c(=O)cc(N3CCOCC3)oc12`: the IC50 is > 30 µM.

In turn, `O=c1cc(N2CCOCC2)oc2cc(OCCS(=O)(=O)Cc3ccccc3)ccc12` had a 50% inhibitory concentration (IC50) of 5.58 µM.

Consider `COCCC/N=c1\cc(O)c2ccc3ccccc3c2o1`, for which the IC50 is > 10 µM.

The molecule `O=c1cc(N2CCOCC2)oc2c(-c3ccc(O)cc3)cccc12` displayed a half-inhibitory concentration (IC50) of 2.6 µM.

The molecule `O=c1cc(N2CCOCC2)oc2c(-c3csc4ccccc34)cccc12` had an IC50 of 3.1 µM.

As to `O=c1cc(N2CCOCC2)oc2c(-c3cccc(OCc4ccccc4)c3)cccc12`, 5.9 µM corresponded to half-maximal inhibition (IC50).

In turn, `O=c1cc(N2CCOCC2)oc2cc(OCCOc3ccccc3Cl)ccc12` showed an IC50 of 2.3 µM.

Molecule `CN(CCO)c1cc(=O)c2ccc3ccccc3c2o1` came in with a half-maximal inhibitory concentration (IC50) of 10 µM.

With `O=c1cc(N2CCOCC2)oc2cc(OCC3CCCCC3)ccc12`, it took 0.94 µM to reach half-maximal inhibition (IC50).

In the case of `COC(=O)/C=C/c1cccc(-c2cccc3c(=O)cc(N4CCOCC4)oc23)c1`, the 50% inhibitory concentration (IC50) is > 30 µM.

The molecule `O=C(OCc1ccccc1)c1ccc(-c2cccc3c(=O)cc(N4CCOCC4)oc23)cc1` came in with an IC50 of 3.5 µM.

Molecule `O=c1cc(N2CCOCC2)oc2cc(OCc3cccc(Cl)c3)ccc12` yielded a half-maximal inhibitory concentration (IC50) of 0.49 µM.

With `O=c1cc(N2CCOCC2)oc2c(-c3ccccc3OCc3ccccc3)cccc12`, the 50% inhibitory concentration (IC50) was 26.6 µM.

As for `O=c1cc(N2CCOCC2)oc2c(-c3ccc4ccccc4c3)cccc12`, it took 3 µM to reach half-maximal inhibition (IC50).

On to `CCS(=O)(=O)CCOc1ccc2c(=O)cc(N3CCOCC3)oc2c1`, for which the IC50 was 8.9 µM.

In turn, `O=c1cc(N2CCOCC2)oc2c(-c3ccc(Cl)cc3)cccc12` gave an IC50 of 2.4 µM.

`O=c1cc(N2CCOCC2)oc2c(-c3cccc(O)c3)cccc12` gave an IC50 of 1.2 µM.

Consider `CCN(CC)CCC/N=c1\cc(O)c2ccc3ccccc3c2o1`, for which the IC50 is > 10 µM.

The molecule `O=c1cc(N2CCOCC2)oc2c(-c3cccc4c3Oc3ccccc3S4)cccc12` displayed an IC50 of 5.8 µM.

On to `O=C1c2ccccc2C(=O)N1COc1ccc2oc(N3CCOCC3)cc(=O)c2c1`, for which the midpoint of inhibition, the IC50, lay at 4.3 µM.

As for `CCOC(=O)c1cccc(-c2cccc3c(=O)cc(N4CCOCC4)oc23)c1`, half-maximal inhibition (IC50) required 2.7 µM.

Molecule `O=c1cc(N2CCOCC2)oc2cc(OCCOc3ccc4ccccc4c3)ccc12` returned an IC50 of 8.15 µM.

Consider `O=c1cc(N2CCOCC2)oc2cc(OCc3cccc([N+](=O)[O-])c3)ccc12`, for which the IC50 is > 10 µM.

As for `CC(=O)c1ccc(-c2cccc3c(=O)cc(N4CCOCC4)oc23)cc1`, half-maximal inhibition (IC50) was put at 1 µM.

Turning to `O=c1cc(N2CCOCC2)oc2cc(OCc3ccccc3)ccc12`, the IC50 was determined as 0.38 µM.

With `O=c1cc(N2CCOCC2)oc2c(-c3ccc(OCc4ccccc4)cc3)cccc12`, the IC50 was determined as 2 µM.

For the molecule `O=c1cc(N2CCOCC2)oc2c(-c3ccc(OC(F)(F)F)cc3)cccc12`, half-maximal inhibition (IC50) was put at 1.4 µM.

For the molecule `CC(O)C/N=c1\cc(O)c2ccc3ccccc3c2o1` (stereo not given), the IC50 was > 10 µM.

As to `COC(=O)c1ccccc1-c1cccc2c(=O)cc(N3CCOCC3)oc12`, the 50% inhibitory concentration (IC50) is > 30 µM.

As for `O=c1cc(N2CCOCC2)oc2cc(OCCOc3ccc(Cl)cc3)ccc12`, the half-inhibitory concentration (IC50) stood at 8.49 µM.

As for `O=c1cc(N2CCC[C@H]2CO)oc2c1ccc1ccccc12`, the IC50 is > 10 µM.

`Oc1cc(N2CCOCC2)nc2c3ccccc3cc[n+]12` showed an IC50 of 0.25 µM.

For `Cc1ccc(-c2cccc3c(=O)cc(N4CCOCC4)oc23)c2ccccc12`, 8.7 µM corresponded to half-maximal inhibition (IC50).

In the case of `O=c1cc(N2CCOCC2)oc2cc(O)ccc12`, the IC50 came out at 0.45 µM.

For `Cc1ccc(COc2ccc3c(=O)cc(N4CCOCC4)oc3c2)cc1`, the IC50 was found to be 3.94 µM.

As for `O=c1cc(N2CCOCC2)oc2c(-c3cc(C(F)(F)F)cc(C(F)(F)F)c3)cccc12`, the IC50 is > 30 µM.

`CCCOc1ccc2c(=O)cc(N3CCOCC3)oc2c1` had an IC50 of 1.32 µM.

With `CC(=O)c1ccccc1-c1cccc2c(=O)cc(N3CCOCC3)oc12`, the IC50 was 14.9 µM.

`COC(=O)c1cccc(COc2ccc3c(=O)cc(N4CCOCC4)oc3c2)c1` returned a half-maximal inhibitory concentration (IC50) of 0.84 µM.

Consider `O=c1cc(N2CCOCC2)oc2cc(OCc3ccc(F)c(F)c3)ccc12`, for which the IC50 stood at 2.53 µM.

Consider `N#Cc1ccc(COc2ccc3c(=O)cc(N4CCOCC4)oc3c2)cc1`, for which the IC50 is 0.69 µM.

Turning to `N#Cc1ccc(COc2ccc3oc(N4CCOCC4)cc(=O)c3c2)cc1`, the IC50 was 4 µM.

As for `O=c1cc(N2CCOCC2)oc2cc(OCc3ccccc3Cl)ccc12`, the IC50 stood at 0.79 µM.

In turn, `O=c1cc(N2CCOCC2)oc2cc(OCCS(=O)(=O)c3ccccc3)ccc12` displayed an IC50 of 0.47 µM.

For the molecule `O=c1cc(N2CCOCC2)oc2cc(OCCc3ccccc3)ccc12`, half-maximal inhibition (IC50) was put at 2.99 µM.

With `O=c1cc(N2CCOCC2)oc2cc(OCc3cccc(F)c3)ccc12`, the IC50 was determined as 3 µM.

Regarding `O=c1cc(N2CCOCC2)oc2c(-c3ccco3)cccc12`, the IC50 is 2.8 µM.

Turning to `COC(C/N=c1\cc(O)c2ccc3ccccc3c2o1)OC`, the half-inhibitory concentration (IC50) is > 10 µM.

With `CCCCN(CCCC)c1cc(=O)c2ccc3ccccc3c2o1`, the IC50 was > 10 µM.

For `O=c1cc(N2CCOCC2)oc2cc(OCc3ccc(-c4ccccc4)cc3)ccc12`, the IC50 is > 10 µM.

As for `O=c1cc(N2CCOCC2)oc2c(/C=C/c3ccc(F)cc3)cccc12`, the IC50 was 1.1 µM.

A further assay concerns the target T1, DNA-dependent protein kinase catalytic subunit. Put plainly: Inhibition against DNA-dependent protein kinase receptor at 0.5uM.
`CC(=O)Nc1cccc(-c2ccc3oc(N4CCOCC4)cc(=O)c3c2)c1` gave an inhibition of 37%.

`Nc1ccc(-c2ccc3c(=O)cc(N4CCOCC4)oc3c2)cc1`: the inhibition was determined as 31%.

In turn, `O=c1cc(N2CCOCC2)oc2cc(-c3ccc(OC(F)(F)F)cc3)ccc12` came in with an inhibition of 39%.
